Measurements reported in ChEMBL document CHEMBL1154109, “In vitro biological activity and structural analysis of 2,4-diamino-5-(2'-arylpropargyl)pyrimidine inhibitors of Candida albicans” (Bioorg Med Chem, 2009).
Converted amounts (≈) assume the structure as drawn. The source made the active and inactive calls. No cut-off for these calls is given here.

Assays:
Dihydrofolate reductase [1] = biological target: T1, Dihydrofolate reductase (Candida albicans, UniProt P22906)
T1 sequence (P22906 whole entry): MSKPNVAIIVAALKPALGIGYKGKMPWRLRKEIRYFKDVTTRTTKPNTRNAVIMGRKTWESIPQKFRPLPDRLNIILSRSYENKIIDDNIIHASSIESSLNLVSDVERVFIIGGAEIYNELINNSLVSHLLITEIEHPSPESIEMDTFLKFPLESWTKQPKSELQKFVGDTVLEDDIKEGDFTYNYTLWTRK
Description: Inhibition of Candida albicans DHFR expressed in Escherichia coli BL21 (DE3) assessed as rate of NADPH consumption using dihydrofolate as substrate

Candida albicans [2] = system: Candida albicans
[3] = Cytotoxicity against human MCF10A cells after 4 hrs by alamar blue assay; details: MCF-10A
Candida albicans [4] = test: Antifungal activity against Candida albicans by alamar blue assay
Dihydrofolate reductase [5] = biological target: T2, Dihydrofolate reductase (Homo sapiens, UniProt P00374)
T2 sequence (P00374 whole entry): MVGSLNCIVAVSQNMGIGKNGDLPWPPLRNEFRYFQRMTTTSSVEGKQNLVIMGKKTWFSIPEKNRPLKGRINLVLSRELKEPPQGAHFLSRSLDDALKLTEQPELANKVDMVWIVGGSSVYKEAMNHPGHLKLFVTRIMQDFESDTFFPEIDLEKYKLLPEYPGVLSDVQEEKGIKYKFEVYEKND
Description: Inhibition of human DHFR assessed as rate of NADPH consumption using dihydrofolate as substrate

| SMILES | IC50 (Dihydrofolate reductase [1]) | MIC (Candida albicans [2]) | further results |
| --- | --- | --- | --- |
| COc1cc(CC#Cc2cnc(N)nc2N)cc(OC)c1OC | 0.82 µM | inactive | – |
| CCc1nc(N)nc(N)c1C#CC(C)c1cc(OC)c(OC)c(OC)c1 (racemic) | 0.02 µM | – | – |
| COc1cc(-c2ccccc2)cc([C@H](C)C#Cc2c(C)nc(N)nc2N)c1 | 0.037 µM | – | – |
| COc1cc(C(O)C#Cc2c(C)nc(N)nc2N)cc(OC)c1OC (racemic) | 0.98 µM | inactive | IC50 [3]: 1000 µM |
| COc1cc(CC#Cc2c(C)nc(N)nc2N)cc(-c2c(C)cccc2C)c1 | 0.055 µM | – | – |
| COc1cc(C(C#Cc2c(C)nc(N)nc2N)C(C)C)cc(OC)c1OC (racemic) | 0.033 µM | – | – |
| COc1cc(-c2ccccc2)cc(C(O)C#Cc2c(C)nc(N)nc2N)c1 (racemic) | 0.091 µM | inactive | – |
| COc1cc(-c2ccccc2C)cc(C(C)C#Cc2c(C)nc(N)nc2N)c1 (racemic) | 0.045 µM | – | – |
| COc1ccc(OC)c(C(O)C#Cc2c(C)nc(N)nc2N)c1 (racemic) | 0.73 µM | – | – |
| COc1cc(C(C)C#Cc2c(C)nc(N)nc2N)ccc1-c1c(C(C)C)cccc1C(C)C (racemic) | 0.041 µM | inactive | – |
| COc1cc(C(C)C#Cc2cnc(N)nc2N)cc(OC)c1OC (racemic) | 0.18 µM | inactive | – |
| COc1cc(-c2c(C(C)C)cccc2C(C)C)cc(C(C)C#Cc2c(C)nc(N)nc2N)c1 (racemic) | 0.038 µM | inactive | – |
| COc1cc(-c2ccccc2)cc(C(C)C#Cc2c(C)nc(N)nc2N)c1 (racemic) | – | – | MIC (Candida albicans [4]): 90 µg/mL (≈ 251 µM) |
| COc1cc(C(C)C#Cc2c(C)nc(N)nc2N)ccc1-c1ccccc1 (racemic) | 0.055 µM | – | IC50 [3]: 80 µM |
| COc1cc(C(C#Cc2c(C)nc(N)nc2N)OC)cc(OC)c1OC (racemic) | 0.32 µM | inactive | – |
| COc1cc(C(C#Cc2cnc(N)nc2N)OC)cc(OC)c1OC (racemic) | 2.5 µM | inactive | – |
| COc1cc(C(C)C#Cc2c(C)nc(N)nc2N)ccc1-c1c(C)cccc1C (racemic) | 0.032 µM | inactive | – |

| SMILES | IC50 (Dihydrofolate reductase [1]) | MIC (Candida albicans [2]) | further results |
| --- | --- | --- | --- |
| COc1cc(-c2ccccc2)cc([C@@H](C)C#Cc2c(C)nc(N)nc2N)c1 | 0.033 µM | – | – |
| COc1cc(CC#Cc2c(C)nc(N)nc2N)cc(OC)c1OC | 0.18 µM | inactive | – |
| COc1cc(-c2ccc(C)cc2)cc(C(C)C#Cc2c(C)nc(N)nc2N)c1 (racemic) | 0.022 µM | – | – |
| COc1cc(-c2c(C)cccc2C)cc(C(C)C#Cc2c(C)nc(N)nc2N)c1 (racemic) | 0.045 µM | – | – |
| CCC(C#Cc1c(C)nc(N)nc1N)c1cc(OC)c(OC)c(OC)c1 (racemic) | 0.045 µM | – | IC50 (Dihydrofolate reductase [5]): 0.2 µM |
| COc1ccc(OC)c(C(C)C#Cc2c(C)nc(N)nc2N)c1 (racemic) | 0.048 µM | – | IC50 (Dihydrofolate reductase [5]): 0.4 µM |
| COc1cc(-c2ccc(C(C)(C)C)cc2)cc(C(C)C#Cc2c(C)nc(N)nc2N)c1 (racemic) | 0.034 µM | – | IC50 [3]: 50 µM |
| COc1cc(C(C)C#Cc2c(C)nc(N)nc2N)cc(OC)c1OC (racemic) | 0.11 µM | – | – |
| CCc1nc(N)nc(N)c1C#CCc1cc(OC)ccc1OC | 0.1 µM | – | IC50 [3]: 63 µM |
| COc1cc(C(O)C#Cc2cnc(N)nc2N)cc(OC)c1OC (racemic) | 11.9 µM | inactive | – |
| COc1ccc(-c2cc(OC)cc(C(C)C#Cc3c(C)nc(N)nc3N)c2)cc1 (racemic) | 0.03 µM | – | – |
| COc1cc(-c2cc(C)cc(C)c2)cc(C(C)C#Cc2c(C)nc(N)nc2N)c1 (racemic) | 0.017 µM | – | – |
| COc1ccc(OC)c(C(C#Cc2c(C)nc(N)nc2N)OC)c1 (racemic) | 0.55 µM | inactive | IC50 (Dihydrofolate reductase [5]): 0.06 µM |
| CCCc1nc(N)nc(N)c1C#CCc1cc(OC)ccc1OC | 0.045 µM | – | – |
| CCc1nc(N)nc(N)c1C#CCc1cc(OC)c(OC)c(OC)c1 | 0.018 µM | – | – |
| COc1ccc(OC)c(CC#Cc2c(C)nc(N)nc2N)c1 | 0.41 µM | – | – |
| COc1ccc(OC)c(CC#Cc2cnc(N)nc2N)c1 | 1.4 µM | – | – |
